One experiment concerns gastric acid secretion. The experiment can be described thus: inhibition of gastric acid secretion in the rat, duration of activity after subcutaneous administration. The experiment is classed as in vivo. To be noted: after 6 days, 50 mg/kg. An excerpt:
A significant advantage of certain of the compounds of the instant invention, particularly those of the Formula I wherein R1 is hydrogen, X is =S(O), R3 is methyl or ethyl, R4 is hydrogen, and R2 is methylthio, ethylthio, or propylthio, is their long duration of activity when administered subcutaneously. Thus, even after 6 days 2[(4-ethylthio-3-ethylpyridin-2-ylmethyl)sulfinyl]-benzimidazole and 2-[(4-ethylthio-3-methylpyridin-2-ylmethyl)sulfinyl]-benzimidazole inhibited gastric acid secretion in the rat 68 and 82%, respectively, when administered subcutaneously at a dose of 50 mg/kg.

A further experiment concerns isolated gastric glands. The experiment can be described thus: inhibition of acid secretion in isolated gastric glands of the rabbit. The experiment is classed as cell-based. To be noted: Oryctolagus cuniculus, shown to be the most effective, read-out: ID50 (the source's name).
Another experiment has as its target T1, gastric(H^+ -K^+)ATPase (Sus scrofa, UniProt P19156).
T1 construct: isolated hog gastric membranes enriched with gastric(H^+ -K^+)ATPase; from tissue; host or cells: hog gastric membranes
Kind of experiment: inhibition of K^+ -dependent ATP hydrolysis by isolated hog gastric membranes enriched with gastric (H^+ -K^+)ATPase. The experiment is classed as biochemical. To be noted: shown to be the most effective, read-out: ID50 (the source's name).

In a further experiment the target is T2, (H^+ -K^+)ATPase (Rattus norvegicus, UniProt P09626).
T2 construct: from tissue; host or cells: rat, in vivo (endogenous enzyme)
T2 sequence (P09626 2-1033 limits assumed): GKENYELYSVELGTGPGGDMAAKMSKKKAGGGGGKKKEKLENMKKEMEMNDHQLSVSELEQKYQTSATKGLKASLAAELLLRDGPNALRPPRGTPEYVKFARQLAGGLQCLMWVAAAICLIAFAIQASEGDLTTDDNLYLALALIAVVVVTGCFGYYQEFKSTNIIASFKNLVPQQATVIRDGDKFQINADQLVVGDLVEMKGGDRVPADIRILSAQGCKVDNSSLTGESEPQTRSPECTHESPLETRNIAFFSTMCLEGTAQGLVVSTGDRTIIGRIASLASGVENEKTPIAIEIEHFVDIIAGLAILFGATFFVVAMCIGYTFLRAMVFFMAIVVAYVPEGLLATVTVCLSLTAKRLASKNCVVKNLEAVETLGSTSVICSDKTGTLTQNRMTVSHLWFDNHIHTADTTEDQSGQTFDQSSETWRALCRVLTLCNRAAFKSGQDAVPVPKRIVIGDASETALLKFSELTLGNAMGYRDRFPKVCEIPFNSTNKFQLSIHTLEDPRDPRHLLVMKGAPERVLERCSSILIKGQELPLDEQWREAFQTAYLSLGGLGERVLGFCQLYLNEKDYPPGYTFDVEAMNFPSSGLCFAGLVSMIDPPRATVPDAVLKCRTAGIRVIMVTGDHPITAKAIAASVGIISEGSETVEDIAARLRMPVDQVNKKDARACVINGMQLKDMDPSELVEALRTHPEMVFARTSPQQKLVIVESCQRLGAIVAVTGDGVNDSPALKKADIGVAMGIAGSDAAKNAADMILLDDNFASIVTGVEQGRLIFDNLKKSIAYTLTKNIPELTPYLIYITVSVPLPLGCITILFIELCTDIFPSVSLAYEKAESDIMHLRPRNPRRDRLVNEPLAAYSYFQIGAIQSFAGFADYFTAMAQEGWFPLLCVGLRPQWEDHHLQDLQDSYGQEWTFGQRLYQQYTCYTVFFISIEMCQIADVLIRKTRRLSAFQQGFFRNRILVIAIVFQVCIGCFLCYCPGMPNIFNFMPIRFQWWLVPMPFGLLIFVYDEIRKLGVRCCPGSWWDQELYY
T2 sequence (P18598 whole entry partner): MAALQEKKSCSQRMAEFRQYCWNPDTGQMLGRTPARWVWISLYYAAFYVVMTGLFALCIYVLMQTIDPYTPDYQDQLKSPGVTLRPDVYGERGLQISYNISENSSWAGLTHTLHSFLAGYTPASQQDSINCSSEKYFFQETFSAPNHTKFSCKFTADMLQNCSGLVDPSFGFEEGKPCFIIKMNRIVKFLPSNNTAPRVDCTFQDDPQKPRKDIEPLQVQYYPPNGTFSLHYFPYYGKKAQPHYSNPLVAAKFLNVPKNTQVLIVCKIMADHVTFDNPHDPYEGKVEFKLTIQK
Kind of experiment: in vivo inactivation of (H^+ -K^+)ATPase in the rat. To be noted: shown to be the most effective.

T1 sequence (P19156 2-1034 limits assumed): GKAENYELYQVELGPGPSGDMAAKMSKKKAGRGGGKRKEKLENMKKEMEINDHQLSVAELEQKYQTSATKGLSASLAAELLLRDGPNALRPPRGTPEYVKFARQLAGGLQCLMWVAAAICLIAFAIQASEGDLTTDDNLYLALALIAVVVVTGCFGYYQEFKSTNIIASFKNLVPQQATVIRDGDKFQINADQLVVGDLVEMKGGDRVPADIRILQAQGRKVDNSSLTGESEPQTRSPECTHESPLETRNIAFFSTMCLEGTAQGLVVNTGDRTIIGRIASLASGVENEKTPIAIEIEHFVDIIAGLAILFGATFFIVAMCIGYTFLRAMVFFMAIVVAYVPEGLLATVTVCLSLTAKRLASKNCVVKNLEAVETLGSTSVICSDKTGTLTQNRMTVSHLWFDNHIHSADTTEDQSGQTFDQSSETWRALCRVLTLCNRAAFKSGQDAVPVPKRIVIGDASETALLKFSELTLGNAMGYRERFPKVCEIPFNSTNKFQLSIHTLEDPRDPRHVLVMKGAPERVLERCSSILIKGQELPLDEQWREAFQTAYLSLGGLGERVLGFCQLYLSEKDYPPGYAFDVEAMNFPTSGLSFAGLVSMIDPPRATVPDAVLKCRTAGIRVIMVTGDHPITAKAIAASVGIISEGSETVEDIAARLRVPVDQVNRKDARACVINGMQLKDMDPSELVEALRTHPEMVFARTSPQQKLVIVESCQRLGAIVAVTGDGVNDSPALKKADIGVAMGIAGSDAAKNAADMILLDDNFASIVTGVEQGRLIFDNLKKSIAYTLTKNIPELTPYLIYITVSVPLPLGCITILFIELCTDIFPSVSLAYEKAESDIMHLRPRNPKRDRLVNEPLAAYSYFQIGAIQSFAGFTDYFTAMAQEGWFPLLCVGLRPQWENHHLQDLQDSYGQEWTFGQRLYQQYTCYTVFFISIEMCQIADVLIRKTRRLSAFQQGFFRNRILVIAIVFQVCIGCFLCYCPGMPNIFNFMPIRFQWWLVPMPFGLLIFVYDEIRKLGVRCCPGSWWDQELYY
T1 sequence (P18434 whole entry partner): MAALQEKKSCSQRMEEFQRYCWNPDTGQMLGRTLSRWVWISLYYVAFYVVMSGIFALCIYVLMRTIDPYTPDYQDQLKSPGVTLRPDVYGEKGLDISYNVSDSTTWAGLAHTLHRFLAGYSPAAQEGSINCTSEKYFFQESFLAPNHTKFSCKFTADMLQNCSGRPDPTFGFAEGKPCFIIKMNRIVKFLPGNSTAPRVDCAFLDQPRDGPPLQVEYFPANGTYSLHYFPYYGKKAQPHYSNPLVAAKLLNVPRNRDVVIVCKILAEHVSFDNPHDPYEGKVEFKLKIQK

Take `CCSc1ccnc(C[S+]([O-])c2nc3ccccc3[nH]2)c1CC` (centres unmarked) [Compound 12, 2-[(4-ethylthio-3-ethylpyridin-2-ylmethyl)sulfinyl]-benzimidazole]: the “inhibition of gastric acid secretion” value in the experiment on gastric acid secretion is reported as 68%. Also, the IC50 with isolated gastric glands amounted to 0.1 µM.
On to `CCc1c(OC)ccnc1C[S+]([O-])c1nc2ccccc2[nH]1` (centres unmarked) [Compound 15, 2-[(4-methoxy-3-ethylpyridin-2-ylmethyl)sulfinyl]-benzimidazole], for which the IC50 on gastric(H^+ -K^+)ATPase was 3 µM.
Compound `CCSc1ccnc(C[S+]([O-])c2nc3ccccc3[nH]2)c1C` (centres unmarked) [Compound 7, 2-[(4-ethylthio-3-methylpyridin-2-ylmethyl)sulfinyl]-benzimidazole] registered an ED50 at (H^+ -K^+)ATPase of 1 mg/kg. The “inhibition of gastric acid secretion” value with gastric acid secretion turned out to be 82%.

Values taken from patent US4575554A, “Substituted 2-pyridylmethylthio- and sulfinyl-benzimidazoles as gastric antisecretory agents” (The Upjohn Company, priority 1984, dated 1986).
